Measured values reported in patent US11324217B2, “Preparation method and application of polyketides bearing the trans-fused decalin skeleton” (QINGDAO AGRICULTURAL UNIVERSITY, priority 2019, dated 2022).

What was measured:
[1] = test system: Echinochloa crusgalli seedlings; assay: Herbicidal activity test (PPA method), growth inhibition of radicles of weed seedlings; assay type: in vivo; settings: Echinochloa crus-galli, 48 h, radicle length after 2 days in agar, read-out: Growth inhibition rates (%) to radicles of Echinochloa crusgalli seedlings; for inhibition at 2.5 µg/mL: 2.5 μg/mL; for inhibition at 5 µg/mL: 5 μg/mL; for inhibition at 10 µg/mL: 10 μg/mL
Source text: The method of grinded plant tissue powder mixed with agar (PPA method), established by Luo Xiaoyong, et al. (Journal of Qingdao Agricultural University, 2007, 24: 267-270) is used to quickly determine the herbicidal activity of compounds. It has the advantages of high sensitivity, easy operation, good repeatability, and large-throughput screening. It is also easy to observe the growth status of indicator plants. Luo Xiaoyong used this method to quickly determine the herbicidal activity of the leaves of 40 garden plants. Zhang Lijuan (Plant Protection, 2016, 42: 63-66) and Su Fansheng (Applied Chemistry, 2014, 31: 290-295) quickly determined the herbicidal activity of corn stalks and imidazole compounds by the PPA method with Echinochloa crusgalli as the test weed. Zhang Yun (Journal of Microbiology, 2015, 55: 292-298) and Li Shuai (Journal of Agricultural and Food Chemistry, 2014, 62: 8997-9001) studied the inhibitory effect of microbial secondary metabolites on the root growth of Amaranthus retroflexus by using Amaranthus retroflexus as the test weed.
Weed seeds were first sterilized with 0.2% sodium hypochlorite for 15 min, then washed repeatedly with sterile distilled water, soaked for 4-6 h, and germinated for 12 h in a medical tray with sterile wet filter paper in a dark place.
The compound to be tested was dissolved in dimethyl sulfoxide (DMSO) to obtain a 4 mg/mL solution, and the 4 mg/mL solution was then diluted with 50% DMSO aqueous solution to different concentrations for later use.
1 mL of the sample solution and 99 mL of sterile agar aqueous solution were mixed well, and poured into three 25 mL small beakers to be condensed. Needle-nose tweezers were used to insert 5 small holes on the surface of the condensed agar, the germinated test weed seedlings with 4-5 radicles were clamped separately and inserted gently and vertically into the small holes. Each beaker had five pieces of such agar and the operation was repeated for three times. Then, all beakers were sealed with tin foil and placed in a sterilized small carton, and the sterilized small carton was then placed in an artificial climate box for shading culture for 2 days. The artificial climate box set an automatic cycle of 14 h lighting (25° C.) and 10 h shading (20° C.), and the relative humidity in the box was set at 60%. After 2 days, the lengths of the radicle and hypocotyl were investigated to calculate the weed growth inhibition rate.
The calculation equations were as follows (Chinese Agricultural Science Bulletin, 2013, 29: 177-182): Growth=length of radicle (hypocotyl) after treatment−length of radicle (hypocotyl) before treatment; Inhibition rate (%)=[(average growth of control−average growth of treatment)/average growth of control]×100%.

Brine shrimp = assay: Lethal activity of Brine shrimp; assay type: in vivo; settings: concentration of 500 μg/mL; 24 h incubation at room temperature
Experimental: Brine shrimp is an aquatic animal that is highly sensitive to toxic substances. It can be used as a model organism to preliminary evaluate the toxic effects of compounds on the environment. Masi, M. et al. used Brine shrimp to preliminary evaluate the toxicity of the herbicidal active compounds Colletochlorins E and F (Journal of Agricultural and Food Chemistry, 2017, 65: 1124-1130).
100 mg of Brine shrimp eggs were placed in a 500 mL beaker, 400 mL of artificial seawater was added, the Brine shrimp eggs were slowly inflated with an air pump and hatched at room temperature for 24 h, the egg shells and unhatched eggs were removed, and the Brine shrimps were further incubated for 24 h.
The compound to be tested was dissolved in DMSO to obtain a 20 mg/mL mother liquor, and the mother liquor was then sequentially diluted twice to obtain 10, 5 and 2.5 mg/mL solutions for later use.
195 μL of artificial seawater containing 10-15 Brine shrimps were added into each well of a 96-well cell culture plate to make a test culture plate. […] After incubation at room temperature for 24 h, the number of Brine shrimp deaths was counted under a binocular dissecting microscope. […]

Structure (SMILES)	inhibition at 2.5 µg/mL [1] [%]	inhibition at 5 µg/mL [1] [%]	inhibition at 10 µg/mL [1] [%]	lethal activity of Brine shrimp (Brine shrimp)
CCOCN(C(=O)CCl)c1c(C)cccc1CC [Acetochlor, reference compound]	54.8 ± 1.3	65.6 ± 1.8	76.1 ± 1.4	
C[C@H]1CC[C@H]2[C@@H](C=C[C@@](C)(O)[C@]2(C)C(=O)CCOC(=O)Cc2ccc(O)c(O)c2)C1 [Compound 2]	41 ± 0.8	55.4 ± 1.2	79.6	do not exhibit the lethal activity
CC1=C[C@H](O)[C@H]2C[C@@H](C)CC[C@@H]2[C@@]1(C)C(=O)CCO [Compound 1]	52.7 ± 1	64.7 ± 0.9	81.5	do not exhibit the lethal activity
